# Results as given in US8388931B2, “99m Tc-labeled triphenylphosphonium derivative contrasting agents and molecular probes for early detection and imaging of breast tumors” (priority 2008, dated 2013).
# Tests used:
# [1] = Comparative study: myocardial and hepatic uptake of 99mTc-MIBI versus 99mTc-Mito10-MAG3; assay type: in vivo, rats; details: rats
# Protocol: (§1) ^99mTc-MIBI of clinical formulation was purchased from Bristol Myers Squibb. […] Dynamic images were acquired in identical fashion following 99mTc-MIBI injection.
# In a comparative study, the myocardial uptake of ^99mTc-MIBI peaked at 2.70±0.4% ID/g within minutes after injection, and remained above 2.41±0.3% ID/g for at least 90 min. Comparatively, the myocardial uptake level of ^99mTc-Mito10-MAG 3 is 10, 40, and 120 fold lower than the uptake level of ^99mTc-MIBI at 3, 10 and 30 min after injection. The hepatic uptake of ^99mTc-MIBI was at 0.37±0.14% ID/g at 30 min after injection.
# [2] = tested on: DMBA-induced breast carcinoma; experiment: In vivo gamma camera imaging of DMBA-induced breast carcinoma in rats; parameters: species or system rats (female Sprague Dawley)
# Protocol: The animal protocol was approved by institutional IACUC review and followed NIH guidelines. The rat model of DMBA-induced breast carcinoma was used.
# As an initial feasibility study, rats were induced with 65 mg/kg DMBA dissolved in sesame oil via a single oral gavage to the stomach. […] Static images were acquired on a GE XRT gamma camera using a high-resolution parallel-hole collimator, 512×512 matrix size, 22.5×22.5 cm field of view, 140±15 keV energy window, 100 k counts. Unexpectedly, apart from the established palpable carcinomas, additional small (millimeter size) tumors were discovered by this imaging technique in the same animals. This finding promoted a longitudinal study to investigate the early detection of neoplastic growth using ^99mTc-Mito10-MAG3.
# Six 48-day-old female rats were injected with 65 mg/kg DMBA. At each week after DMBA induction, the rats were imaged using the following protocol. Each rat was anesthetized with 1.6% isoflurane in room air supplemented with oxygen. […] Dynamic images were continuously acquired at one frame per min for 90 min using the imaging parameters set forth hereinabove. The weekly imaging regiment was continued for all six rats until palpable tumors became detectable, which typically takes place between seven to nine weeks after the administration of DMBA. Due to the relatively short physical half-life of ^99mTc (6 hr), no residual signal, therefore, no cross-contamination is detectable from the previous injection the week before.
# as §1
# The female Sprague Dawley rats have six pairs of mammary glands, among which glands a and b are away from the hepatic/gastrointestinal region. (FIG. 9, Panel A). Since the typical biodistribution of a lipophilic radiopharmaceutical in the abdominal region precludes reliable imaging of breast tissues below the diaphragm, mammary glands shown in Panels C, D, E and F were excluded from the data analysis. This exclusion also was based on the fact that such spatial distribution of mammary glands is irrelevant to that of the human anatomy.
# Imaging data analysis was carried out using an inbuilt software, by carefully drawing a region of interest (ROI) on the tumor site to determine the radioactivity counts in the ROI. […] Radioactivity counts were determined in each ROI. Tumor-to-normal and tumor-to-muscle ratios were calculated as the count ratio between the two ROIs.
# The rats were sacrificed by CO2 asphyxiation and the number and location of the mammary tumors were recorded at necropsy. The tumors were dissected, with the diameter and weight measured and documented. […]
smiles,measurement,setting,value
CC(=O)[S+]1CC(=O)[N]2CC(=O)[N]3CC(=O)[N](CC(=O)NCCCCCCCCCC[P+](c4ccccc4)(c4ccccc4)c4ccccc4)[99Tc]321=[O].[Br-] (stereo not drawn) [^99mTc-Mito10-MAG3],reduction of uptake in the myocardium compared to 99mTc-MIBI,[1],one to two orders of magnitude
same,uptake in small breast tumors that escaped detection by palpation,"[2]; 15 μg via tail vein, gamma camera",significant focal uptake
same,weight of small non-palpable tumor detected by imaging,"[2]; feasibility experiment, 11 weeks after DMBA induction, at dissection",18 mg
